From patent US8642609B2, “Modulators of ATP-binding cassette transporters” (Vertex Pharmaceuticals Incorporated, priority 2003, dated 2014) come the findings set out here.

The target of the test is T1, ΔF508-CFTR (Homo sapiens, UniProt P13569, DEL508-508).
T1 construct: expressed in transfected cells
The test is described as follows: Membrane potential optical assay (FRET/VIPR), identification of correction compounds. It counts as cell-based. The note with it: for Emax: relative efficacy. In a few lines: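 NIH3T3 cells stably expressing ΔF508-CFTR incubated 16 hrs at 37° C in serum-free medium with test compound; 27° C incubation as positive control. CFTR then activated with 10 μM forskolin plus 20 μM genistein in Cl^−-free medium; depolarization read by DiSBAC2(3)/CC2-DMPE FRET on VIPR.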

Structures are written as SMILES. A value given as a limit tells only on which side of the number the result lay.

T1 sequence (P13569 with tags, fused parts or gaps DEL508-508): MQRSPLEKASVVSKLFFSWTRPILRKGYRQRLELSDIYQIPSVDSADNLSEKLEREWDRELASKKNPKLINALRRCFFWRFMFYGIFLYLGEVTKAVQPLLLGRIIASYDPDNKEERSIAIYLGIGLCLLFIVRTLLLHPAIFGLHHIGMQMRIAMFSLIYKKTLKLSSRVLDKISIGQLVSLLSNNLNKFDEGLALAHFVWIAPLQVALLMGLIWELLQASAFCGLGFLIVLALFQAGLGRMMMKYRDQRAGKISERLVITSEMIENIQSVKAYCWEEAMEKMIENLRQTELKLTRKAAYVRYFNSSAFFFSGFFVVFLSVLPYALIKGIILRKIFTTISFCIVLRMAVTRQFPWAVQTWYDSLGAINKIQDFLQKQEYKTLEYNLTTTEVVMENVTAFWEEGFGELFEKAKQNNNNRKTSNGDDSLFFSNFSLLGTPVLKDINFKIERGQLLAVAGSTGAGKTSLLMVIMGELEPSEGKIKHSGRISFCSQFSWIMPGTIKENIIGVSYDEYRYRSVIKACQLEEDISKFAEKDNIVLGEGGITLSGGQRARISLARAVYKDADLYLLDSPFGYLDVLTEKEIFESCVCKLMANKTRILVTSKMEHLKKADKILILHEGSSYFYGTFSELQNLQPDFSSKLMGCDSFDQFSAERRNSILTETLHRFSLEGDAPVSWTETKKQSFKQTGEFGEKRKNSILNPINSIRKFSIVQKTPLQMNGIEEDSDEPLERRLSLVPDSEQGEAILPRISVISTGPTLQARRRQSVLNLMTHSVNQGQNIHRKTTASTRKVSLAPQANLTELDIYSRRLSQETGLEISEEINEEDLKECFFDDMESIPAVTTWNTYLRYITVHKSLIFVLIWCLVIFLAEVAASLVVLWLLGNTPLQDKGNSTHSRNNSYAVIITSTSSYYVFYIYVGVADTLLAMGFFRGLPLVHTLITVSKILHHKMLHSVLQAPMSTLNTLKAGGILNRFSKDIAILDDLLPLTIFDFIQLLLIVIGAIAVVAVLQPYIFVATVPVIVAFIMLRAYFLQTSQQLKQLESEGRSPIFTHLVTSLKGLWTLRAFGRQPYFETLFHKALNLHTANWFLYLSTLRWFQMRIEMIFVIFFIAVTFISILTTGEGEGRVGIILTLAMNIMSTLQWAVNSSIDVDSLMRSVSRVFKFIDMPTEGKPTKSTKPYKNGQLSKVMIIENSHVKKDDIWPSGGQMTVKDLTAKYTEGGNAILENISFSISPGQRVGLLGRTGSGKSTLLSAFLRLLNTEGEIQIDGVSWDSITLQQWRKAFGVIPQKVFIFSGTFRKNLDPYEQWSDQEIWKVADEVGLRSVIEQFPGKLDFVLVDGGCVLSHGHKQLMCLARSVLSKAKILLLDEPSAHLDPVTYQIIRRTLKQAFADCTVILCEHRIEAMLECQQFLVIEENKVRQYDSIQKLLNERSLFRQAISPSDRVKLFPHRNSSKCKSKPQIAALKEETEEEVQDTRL

What is called EC50 is the concentration giving half of the maximal effect. For orientation: Emax means the maximal effect, on the per cent scale that the assay sets. On to `CC(c1nc2ccccc2c(=O)n1C)N1CCN(S(=O)(=O)c2ccc(-c3ccon3)s2)CC1` (stereo not shown) [compound 269], for which the EC50 fell in the range of 25 to 60 µM and the Emax was less than 25%.

`Cc1c(S(=O)(=O)N2CCN(C(C)c3nc4ccccc4c(=O)n3C)CC2)sc2ccc(Cl)cc12` (stereo not shown) [compound 270]: the 50% effective concentration (EC50) is 25 to 60 µM and the maximal effect (Emax) was less than 25%.

On to `CC(c1nc2ccccc2c(=O)n1C)N1CCN(S(=O)(=O)c2ccc(Cl)c3nonc23)CC1` (stereo not shown) [compound 271], for which the 50% effective concentration (EC50) fell in the range of 25 to 60 µM and the maximum response (Emax) is less than 25%.

As to `CC(c1nc2ccccc2c(=O)n1C)N1CCN(S(=O)(=O)c2csc3ccccc23)CC1` (stereo not shown) [compound 272], the half-maximal effective concentration (EC50) was less than 10 µM and the Emax lay within 25 to 100%.

Regarding `CC(C)c1ccc(S(=O)(=O)N2CCN(C(C)c3nc4ccccc4c(=O)n3C)CC2)cc1` (stereo not shown) [compound 273], the EC50 fell in the range of 25 to 60 µM and the maximal effect (Emax) was less than 25%.

`CC(c1nc2ccccc2c(=O)n1C)N1CCN(S(=O)(=O)c2cccs2)CC1` (stereo not shown) [compound 274]: the EC50 lay within 25 to 60 µM and the Emax is less than 25%.

For `CC(c1nc2ccccc2c(=O)n1C)N1CCN(S(=O)(=O)c2ccc(-c3cc(C(F)(F)F)n(C)n3)s2)CC1` (stereo not shown) [compound 275], the EC50 is 25 to 60 µM and the maximal response (Emax) was less than 25%.

On to `CC(c1nc2ccccc2c(=O)n1C)N1CCN(S(=O)(=O)c2cccc3cccnc23)CC1` (stereo not shown) [compound 276], for which the EC50 lay within 25 to 60 µM and the maximum response (Emax) is less than 25%.

Turning to `CSc1nccc(-c2ccc(S(=O)(=O)N3CCN(C(C)c4nc5ccccc5c(=O)n4C)CC3)s2)n1` (stereo not shown) [compound 277], the EC50 lay in the range of 25 to 60 µM and the maximum response (Emax) was less than 25%.

In the case of `CC(c1nc2ccccc2c(=O)n1C)N1CCN(S(=O)(=O)Cc2ccccc2)CC1` (stereo not shown) [compound 278], the EC50 was in the range of 25 to 60 µM and the Emax was less than 25%.

As for `CC(c1nc2ccccc2c(=O)n1C)N1CCN(S(=O)(=O)c2cccc(C#N)c2)CC1` (stereo not shown) [compound 279], the EC50 was 25 to 60 µM and the Emax is less than 25%.

For the compound `CC(c1nc2ccccc2c(=O)n1C)N1CCN(S(=O)(=O)c2ccc(-c3csnn3)s2)CC1` (stereo not shown) [compound 280], the EC50 lay in the range of 10 to 25 µM and the maximum response (Emax) was less than 25%.

With `CC(c1nc2ccccc2c(=O)n1C)N1CCN(S(=O)(=O)c2ccc(-c3ccccn3)s2)CC1` (stereo not shown) [compound 281], the EC50 lay within 25 to 60 µM and the Emax was less than 25%.

Turning to `CC(c1nc2ccccc2c(=O)n1C)N1CCN(S(=O)(=O)c2cccc3nsnc23)CC1` (stereo not shown) [compound 282], the half-maximal effective concentration (EC50) was in the range of 25 to 60 µM and the Emax was less than 25%.

Consider `COc1cc2nc(C(C)N3CCN(S(=O)(=O)c4ccc(Cl)cc4)CC3)n(C)c(=O)c2cc1OC` (stereo not shown) [compound 283], for which the EC50 was in the range of 25 to 60 µM and the Emax was in the range of 25 to 100%.

`COc1cc2nc(C(C)N3CCN(S(=O)(=O)c4ccc(Br)cc4)CC3)n(C)c(=O)c2cc1OC` (stereo not shown) [compound 284]: the EC50 fell in the range of 25 to 60 µM and the Emax was in the range of 25 to 100%.

For `COc1ccc(S(=O)(=O)N2CCN(C(C)c3nc4cc(OC)c(OC)cc4c(=O)n3C)CC2)cc1` (stereo not shown) [compound 285], the EC50 was 25 to 60 µM and the Emax fell in the range of 25 to 100%.

Turning to `COc1cc2nc(C(C)N3CCN(S(=O)(=O)c4ccc(C)cc4)CC3)n(C)c(=O)c2cc1OC` (stereo not shown) [compound 286], the EC50 was 25 to 60 µM and the Emax lay within 25 to 100%.

As to `CC(=O)NCCn1c(C(C)N2CCN(S(=O)(=O)c3ccc(Br)cc3)CC2)nc2ccccc2c1=O` (stereo not shown) [compound 287], the EC50 was in the range of 25 to 60 µM and the Emax lay within 25 to 100%.

As to `COc1ccc(S(=O)(=O)N2CCN(C(C)c3nc4ccccc4c(=O)n3CCNC(C)=O)CC2)cc1` (stereo not shown) [compound 288], the EC50 is 25 to 60 µM and the Emax is less than 25%.

For the compound `CC(=O)NCCn1c(C(C)N2CCN(S(=O)(=O)c3ccc(Cl)cc3)CC2)nc2ccccc2c1=O` (stereo not shown) [compound 289], the EC50 lay within 25 to 60 µM and the Emax fell in the range of 25 to 100%.

On to `Cc1c(S(=O)(=O)N2CCN(C(C)c3nc4ccccc4c(=O)n3C)CC2)sc2ccc(F)cc12` (stereo not shown) [compound 290], for which the EC50 lay in the range of 25 to 60 µM and the Emax was in the range of 25 to 100%.

In the case of `CC(c1nc2ccccc2c(=O)n1C)N1CCN(S(=O)(=O)c2ccc(C(N)=O)cc2)CC1` (stereo not shown) [compound 291], the EC50 was in the range of 25 to 60 µM and the Emax was less than 25%.

With `CC(c1nc2ccccc2c(=O)n1C)N1CCN(S(=O)(=O)N(C)C)CC1` (stereo not shown) [compound 292], the EC50 was 25 to 60 µM and the maximal response (Emax) was less than 25%.

In the case of `CC(c1nc2ccccc2c(=O)n1C)N1CCN(S(=O)(=O)c2ccc(OC(F)F)cc2)CC1` (stereo not shown) [compound 293], the EC50 fell in the range of 25 to 60 µM and the Emax was more than 100%.

For the compound `COc1ccc(S(=O)(=O)N2CCN(C(C)c3nc(OCC4COCO4)c4ccccc4n3)CC2)cc1` (stereo not shown) [compound 294], the EC50 lay in the range of 25 to 60 µM and the Emax fell in the range of 25 to 100%.

For the compound `COCCOc1nc(C(C)N2CCN(S(=O)(=O)c3ccc(OC)cc3)CC2)nc2ccccc12` (stereo not shown) [compound 295], the EC50 was 25 to 60 µM and the Emax lay in the range of 25 to 100%.

Turning to `COc1ccc(S(=O)(=O)N2CCN(C(C)c3nc(OCC4(C)COCOC4)c4ccccc4n3)CC2)cc1` (stereo not shown) [compound 296], the EC50 lay in the range of 10 to 25 µM and the Emax is more than 100%.

As for `COc1ccc(S(=O)(=O)N2CCN(C(C)c3nc(Oc4ccncc4)c4ccccc4n3)CC2)cc1` (stereo not shown) [compound 297], the EC50 was less than 10 µM and the Emax was 25 to 100%.

For `COc1ccc(S(=O)(=O)N2CCN(C(C)c3nc(OC4CCCCC4)c4ccccc4n3)CC2)cc1` (stereo not shown) [compound 298], the EC50 was less than 10 µM and the Emax is more than 100%.

On to `COc1ccc(S(=O)(=O)N2CCN(C(C)c3nc(OCCN4CCCC4)c4ccccc4n3)CC2)cc1` (stereo not shown) [compound 299], for which the EC50 fell in the range of 10 to 25 µM and the Emax was 25 to 100%.

In the case of `COc1ccc(S(=O)(=O)N2CCN(C(C)c3nc(OC4CCOCC4)c4ccccc4n3)CC2)cc1` (stereo not shown) [compound 300], the EC50 was 25 to 60 µM and the Emax is more than 100%.

Consider `COc1ccc(S(=O)(=O)N2CCN(C(C)c3nc(OCCN(C)C)c4ccccc4n3)CC2)cc1` (stereo not shown) [compound 301], for which the EC50 fell in the range of 25 to 60 µM and the Emax lay in the range of 25 to 100%.

`COc1ccc(S(=O)(=O)N2CCN(C(C)c3nc(N4CCCCC4)c4ccccc4n3)CC2)cc1` (stereo not shown) [compound 302]: the EC50 was less than 10 µM and the Emax is more than 100%.

As for `COc1ccc(S(=O)(=O)N2CCN(C(C)c3nc(NC4CCCC4)c4ccccc4n3)CC2)cc1` (stereo not shown) [compound 303], the EC50 is less than 10 µM and the maximum response (Emax) was more than 100%.

For `COc1ccc(S(=O)(=O)N2CCN(C(C)c3nc(NC4CCCCC4)c4ccccc4n3)CC2)cc1` (stereo not shown) [compound 304], the EC50 was less than 10 µM and the Emax was in the range of 25 to 100%.

For `COc1ccc(S(=O)(=O)N2CCN(C(C)c3nc(N4CCCC(C)C4)c4ccccc4n3)CC2)cc1` (stereo not shown) [compound 305], the EC50 was less than 10 µM and the Emax lay in the range of 25 to 100%.

In the case of `CC(c1nc2ccccc2c(=O)n1C)N(C)C1CCN(S(=O)(=O)c2ccc(Br)cc2)CC1` (stereo not shown) [compound 306], the EC50 lay in the range of 25 to 60 µM and the Emax was 25 to 100%.

Turning to `COc1ccc(S(=O)(=O)Nc2ccc(NC(C)c3nc4ccccc4c(=O)n3C)cc2)cc1` (stereo not shown) [compound 307], the half-maximal effective concentration (EC50) lay in the range of 25 to 60 µM and the Emax was 25 to 100%.

As to `CC(Nc1ccc(NS(=O)(=O)c2ccc(Cl)cc2)cc1)c1nc2ccccc2c(=O)n1C` (stereo not shown) [compound 308], the 50% effective concentration (EC50) was less than 10 µM and the Emax is 25 to 100%.

For `CC(Nc1ccc(NS(=O)(=O)c2ccc(Br)cc2)cc1)c1nc2ccccc2c(=O)n1C` (stereo not shown) [compound 309], the EC50 is less than 10 µM and the Emax lay in the range of 25 to 100%.

In the case of `COc1ccc(S(=O)(=O)N2CCN(C(C)c3nc(C(C)C)c4ccccc4n3)CC2)cc1` (stereo not shown) [compound 310], the concentration giving a half-maximal response (EC50) was less than 10 µM and the Emax lay within 25 to 100%.

On to `COc1ccc(S(=O)(=O)N2CCN(C(C)c3nc(OC(C)(C)C)c4ccccc4n3)CC2)cc1` (stereo not shown) [compound 311], for which the EC50 is less than 10 µM and the Emax is more than 100%.

As to `COc1ccc(S(=O)(=O)N2CCN(C(C)c3ncc4ccccc4n3)CC2)cc1` (stereo not shown) [compound 312], the EC50 fell in the range of 25 to 60 µM and the Emax fell in the range of 25 to 100%.

Take `CC(c1ncc2ccccc2n1)N1CCN(S(=O)(=O)c2ccc(Br)cc2)CC1` (stereo not shown) [compound 313]: the concentration giving a half-maximal response (EC50) fell in the range of 25 to 60 µM and the Emax is 25 to 100%.

`COc1ccc(S(=O)(=O)N2CCC(N(C)C(C)c3nc4ccccc4c(=O)n3C)CC2)cc1` (stereo not shown) [compound 314]: the EC50 was 25 to 60 µM and the maximal effect (Emax) lay in the range of 25 to 100%.

Take `CC(c1nc2ccccc2c(=O)n1C)N(C)C1CCN(S(=O)(=O)c2ccc(Cl)cc2)CC1` (stereo not shown) [compound 315]: the EC50 was in the range of 25 to 60 µM and the maximal response (Emax) lay in the range of 25 to 100%.

`COc1ccc(S(=O)(=O)N2CCN(C(C)c3nc(N4CC(C)CC(C)C4)c4ccccc4n3)CC2)cc1` (stereo not shown) [compound 316]: the EC50 lay within 25 to 60 µM and the Emax was 25 to 100%.

With `COc1ccc(S(=O)(=O)N2CCN(C(C)c3nc(N4CCC(N5CCCCC5)CC4)c4ccccc4n3)CC2)cc1` (stereo not shown) [compound 317], the EC50 fell in the range of 25 to 60 µM and the Emax is less than 25%.

For the compound `COc1ccc(S(=O)(=O)N2CCN(C(C)c3nc(N4CC[C@H](O)C4)c4ccccc4n3)CC2)cc1` (stereo partly shown) [compound 318], the EC50 lay within 25 to 60 µM and the Emax was in the range of 25 to 100%.

`COc1ccc(S(=O)(=O)N2CCN(C(C)c3nc(N4CCCCCC4)c4ccccc4n3)CC2)cc1` (stereo not shown) [compound 319]: the EC50 was less than 10 µM and the Emax was 25 to 100%.

For `COc1ccc(S(=O)(=O)N2CCN(C(C)c3nc(N4CCC(C)CC4)c4ccccc4n3)CC2)cc1` (stereo not shown) [compound 320], the EC50 was less than 10 µM and the Emax is more than 100%.

As to `COc1ccc(S(=O)(=O)N2CCN(C(C)c3nc(N4CCSCC4)c4ccccc4n3)CC2)cc1` (stereo not shown) [compound 321], the EC50 was less than 10 µM and the Emax is more than 100%.
